From the kinase profiling compilation of Christmann-Franck et al. (2016)

Columns and labels:
Test in all cases: radiometric filter-binding kinase assay
[1] = target: FLT1 (human) (UniProt P17948)
[2] = tested on: SGK1 (human), O00141 [S422D]
[3] = target: JAK2 JH1 JH2 (human) (UniProt O60674)
[4] = target: HIPK3 (human) (UniProt Q9H422)
[5] = target: PLK1 (human) (UniProt P53350)
[6] = target: EPHB4 (human) (UniProt P54760)
[7] = target: MST4 (human) (UniProt Q9P289)
[8] = target: NUAK1 (human) (UniProt O60285)
[9] = target: TAOK1 (human) (UniProt Q7L7X3)
[10] = target: MARK4 (human) (UniProt Q96L34)
[11] = target: MAPK3 (human) (UniProt P27361)
[12] = target: BRSK2 (human) (UniProt Q8IWQ3)
[13] = target: CLK2 (human) (UniProt P49760)
[14] = target: STK3 (human) (UniProt Q13188)
[15] = target: MARK3 (human) (UniProt P27448)
[16] = target: NTRK1 (human) (UniProt P04629)
[17] = target: SRC (human) (UniProt P12931)
[18] = target: ERBB4 (human) (UniProt Q15303)
[19] = target: MAP3K1 (human) (UniProt Q13233)
[20] = target: RPS6KA1 KD1 KD2 (human) (UniProt Q15418)
[21] = target: MAPK1 (human) (UniProt P28482)
[22] = target: CHEK1 (human) (UniProt O14757)
[23] = target: AURKA (human) (UniProt O14965)
[24] = target: RPS6KA3 KD1 KD2 (human) (UniProt P51812)
[25] = target: DAPK1 (human) (UniProt P53355)
[26] = target: HIPK1 (human) (UniProt Q86Z02)
[27] = target: EEF2K (human) (UniProt O00418)
[28] = target: PRKCZ (human) (UniProt Q05513)
[29] = target: MAP3K5 (human) (UniProt Q99683)
[30] = target: RPS6KA5 KD1 KD2 (human) (UniProt O75582)
[31] = target: CDK2 CCNA2 (human) (UniProt P20248+P24941)
[32] = target: PAK6 (human) (UniProt Q9NQU5)
[33] = target: PRKCA (human) (UniProt P17252)
[34] = target: GCK (human) (UniProt Q12851)
[35] = target: CHEK2 (human) (UniProt O96017)
Sequence of CHEK2 (human) (O96017 whole entry, looked up): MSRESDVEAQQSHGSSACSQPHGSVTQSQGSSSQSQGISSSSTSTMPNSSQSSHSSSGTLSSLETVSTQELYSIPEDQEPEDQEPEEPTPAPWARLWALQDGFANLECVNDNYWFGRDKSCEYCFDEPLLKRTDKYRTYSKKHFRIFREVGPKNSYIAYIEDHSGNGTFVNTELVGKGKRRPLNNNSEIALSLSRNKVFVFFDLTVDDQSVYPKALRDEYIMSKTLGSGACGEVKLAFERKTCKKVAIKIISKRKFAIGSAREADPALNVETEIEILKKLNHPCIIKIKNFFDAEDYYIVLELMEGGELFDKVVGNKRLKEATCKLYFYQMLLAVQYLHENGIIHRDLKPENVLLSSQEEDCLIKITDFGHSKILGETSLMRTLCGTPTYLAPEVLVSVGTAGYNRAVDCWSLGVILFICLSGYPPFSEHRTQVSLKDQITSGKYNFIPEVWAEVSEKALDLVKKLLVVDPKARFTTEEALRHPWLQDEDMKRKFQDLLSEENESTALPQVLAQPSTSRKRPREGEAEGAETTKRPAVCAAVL

Sequence of ERBB4 (human) (Q15303 whole entry, looked up): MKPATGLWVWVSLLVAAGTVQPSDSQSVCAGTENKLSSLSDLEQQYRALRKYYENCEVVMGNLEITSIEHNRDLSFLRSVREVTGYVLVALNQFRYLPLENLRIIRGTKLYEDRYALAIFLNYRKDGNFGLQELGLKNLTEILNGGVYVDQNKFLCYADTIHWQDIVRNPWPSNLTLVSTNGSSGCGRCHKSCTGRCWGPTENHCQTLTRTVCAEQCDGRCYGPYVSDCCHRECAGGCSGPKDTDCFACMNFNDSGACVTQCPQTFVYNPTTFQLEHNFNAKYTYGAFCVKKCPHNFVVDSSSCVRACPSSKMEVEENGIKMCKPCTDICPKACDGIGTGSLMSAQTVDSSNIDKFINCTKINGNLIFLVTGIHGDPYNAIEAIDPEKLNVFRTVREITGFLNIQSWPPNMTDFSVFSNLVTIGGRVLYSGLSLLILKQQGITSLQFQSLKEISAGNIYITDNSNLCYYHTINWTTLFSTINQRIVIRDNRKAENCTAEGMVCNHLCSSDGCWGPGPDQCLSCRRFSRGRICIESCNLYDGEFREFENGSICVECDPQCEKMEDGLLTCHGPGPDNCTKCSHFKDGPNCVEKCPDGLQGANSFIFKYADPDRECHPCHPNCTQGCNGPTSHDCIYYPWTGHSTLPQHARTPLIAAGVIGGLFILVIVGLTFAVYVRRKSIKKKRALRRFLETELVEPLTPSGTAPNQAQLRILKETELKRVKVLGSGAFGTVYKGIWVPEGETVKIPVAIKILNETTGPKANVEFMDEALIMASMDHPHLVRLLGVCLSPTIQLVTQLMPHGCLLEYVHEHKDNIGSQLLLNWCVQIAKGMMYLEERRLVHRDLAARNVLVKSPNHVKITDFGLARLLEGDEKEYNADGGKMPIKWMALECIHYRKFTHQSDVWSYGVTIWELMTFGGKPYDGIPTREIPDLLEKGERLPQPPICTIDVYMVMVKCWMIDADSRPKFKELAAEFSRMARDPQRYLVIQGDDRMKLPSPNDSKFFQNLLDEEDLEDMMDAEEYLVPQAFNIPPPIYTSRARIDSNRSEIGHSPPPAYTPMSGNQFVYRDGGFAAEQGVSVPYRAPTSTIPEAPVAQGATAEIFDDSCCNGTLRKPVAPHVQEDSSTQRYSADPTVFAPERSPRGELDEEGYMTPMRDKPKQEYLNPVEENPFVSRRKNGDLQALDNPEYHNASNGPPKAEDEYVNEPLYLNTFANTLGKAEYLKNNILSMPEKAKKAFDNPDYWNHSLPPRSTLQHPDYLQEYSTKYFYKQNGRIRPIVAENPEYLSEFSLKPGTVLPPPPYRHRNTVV
Sequence of NTRK1 (human) (P04629 whole entry, looked up): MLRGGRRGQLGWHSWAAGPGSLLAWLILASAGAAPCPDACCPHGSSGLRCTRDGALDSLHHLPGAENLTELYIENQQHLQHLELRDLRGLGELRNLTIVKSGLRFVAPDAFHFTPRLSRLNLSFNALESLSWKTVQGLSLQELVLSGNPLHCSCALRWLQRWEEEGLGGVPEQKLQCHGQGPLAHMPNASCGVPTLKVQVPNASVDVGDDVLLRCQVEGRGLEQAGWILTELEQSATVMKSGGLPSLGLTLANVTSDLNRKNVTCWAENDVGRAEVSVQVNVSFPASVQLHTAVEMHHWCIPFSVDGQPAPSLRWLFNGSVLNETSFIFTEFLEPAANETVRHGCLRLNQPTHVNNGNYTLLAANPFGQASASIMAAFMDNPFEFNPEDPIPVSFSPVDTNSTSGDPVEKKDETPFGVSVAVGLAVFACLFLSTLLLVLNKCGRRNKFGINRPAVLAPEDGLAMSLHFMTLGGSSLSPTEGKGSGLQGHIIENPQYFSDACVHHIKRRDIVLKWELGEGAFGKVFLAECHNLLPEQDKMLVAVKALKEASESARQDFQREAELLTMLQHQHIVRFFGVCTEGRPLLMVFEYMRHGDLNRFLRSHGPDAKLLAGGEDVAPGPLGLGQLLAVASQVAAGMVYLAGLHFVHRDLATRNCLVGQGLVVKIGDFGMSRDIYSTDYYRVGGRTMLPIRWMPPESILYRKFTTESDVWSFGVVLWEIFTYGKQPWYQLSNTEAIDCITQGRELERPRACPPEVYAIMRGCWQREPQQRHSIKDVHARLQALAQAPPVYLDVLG
Sequence of PLK1 (human) (P53350 whole entry, looked up): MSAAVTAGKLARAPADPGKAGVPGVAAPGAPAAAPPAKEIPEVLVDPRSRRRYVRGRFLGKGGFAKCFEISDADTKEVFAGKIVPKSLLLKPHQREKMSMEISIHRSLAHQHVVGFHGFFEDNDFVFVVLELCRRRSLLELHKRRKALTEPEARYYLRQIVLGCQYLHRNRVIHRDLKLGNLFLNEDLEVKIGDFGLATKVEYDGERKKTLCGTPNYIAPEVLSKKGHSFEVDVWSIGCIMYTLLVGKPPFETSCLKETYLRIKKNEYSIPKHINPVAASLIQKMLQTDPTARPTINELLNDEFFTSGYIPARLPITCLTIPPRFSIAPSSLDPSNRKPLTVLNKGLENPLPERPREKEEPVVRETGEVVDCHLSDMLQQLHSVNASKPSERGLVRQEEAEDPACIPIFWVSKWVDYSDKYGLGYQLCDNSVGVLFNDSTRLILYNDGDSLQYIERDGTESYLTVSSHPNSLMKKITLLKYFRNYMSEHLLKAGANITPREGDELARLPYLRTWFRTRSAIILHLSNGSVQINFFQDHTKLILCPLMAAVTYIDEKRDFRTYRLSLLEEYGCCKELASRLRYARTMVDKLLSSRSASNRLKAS
Sequence of SRC (human) (P12931 whole entry, looked up): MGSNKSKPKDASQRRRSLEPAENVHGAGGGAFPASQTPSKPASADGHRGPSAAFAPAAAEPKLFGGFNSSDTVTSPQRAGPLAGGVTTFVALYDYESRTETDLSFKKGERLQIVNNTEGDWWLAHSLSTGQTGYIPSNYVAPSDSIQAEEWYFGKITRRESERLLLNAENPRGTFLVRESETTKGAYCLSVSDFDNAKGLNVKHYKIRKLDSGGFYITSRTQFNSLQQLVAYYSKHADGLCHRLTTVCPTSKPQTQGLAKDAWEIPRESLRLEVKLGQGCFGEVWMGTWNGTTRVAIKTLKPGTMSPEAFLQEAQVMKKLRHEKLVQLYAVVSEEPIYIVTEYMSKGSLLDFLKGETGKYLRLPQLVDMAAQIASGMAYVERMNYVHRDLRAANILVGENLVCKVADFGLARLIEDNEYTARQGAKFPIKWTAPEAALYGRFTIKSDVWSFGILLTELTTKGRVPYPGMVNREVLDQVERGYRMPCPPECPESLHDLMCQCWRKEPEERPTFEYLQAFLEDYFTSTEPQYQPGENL
Sequence of HIPK3 (human) (Q9H422 whole entry, looked up): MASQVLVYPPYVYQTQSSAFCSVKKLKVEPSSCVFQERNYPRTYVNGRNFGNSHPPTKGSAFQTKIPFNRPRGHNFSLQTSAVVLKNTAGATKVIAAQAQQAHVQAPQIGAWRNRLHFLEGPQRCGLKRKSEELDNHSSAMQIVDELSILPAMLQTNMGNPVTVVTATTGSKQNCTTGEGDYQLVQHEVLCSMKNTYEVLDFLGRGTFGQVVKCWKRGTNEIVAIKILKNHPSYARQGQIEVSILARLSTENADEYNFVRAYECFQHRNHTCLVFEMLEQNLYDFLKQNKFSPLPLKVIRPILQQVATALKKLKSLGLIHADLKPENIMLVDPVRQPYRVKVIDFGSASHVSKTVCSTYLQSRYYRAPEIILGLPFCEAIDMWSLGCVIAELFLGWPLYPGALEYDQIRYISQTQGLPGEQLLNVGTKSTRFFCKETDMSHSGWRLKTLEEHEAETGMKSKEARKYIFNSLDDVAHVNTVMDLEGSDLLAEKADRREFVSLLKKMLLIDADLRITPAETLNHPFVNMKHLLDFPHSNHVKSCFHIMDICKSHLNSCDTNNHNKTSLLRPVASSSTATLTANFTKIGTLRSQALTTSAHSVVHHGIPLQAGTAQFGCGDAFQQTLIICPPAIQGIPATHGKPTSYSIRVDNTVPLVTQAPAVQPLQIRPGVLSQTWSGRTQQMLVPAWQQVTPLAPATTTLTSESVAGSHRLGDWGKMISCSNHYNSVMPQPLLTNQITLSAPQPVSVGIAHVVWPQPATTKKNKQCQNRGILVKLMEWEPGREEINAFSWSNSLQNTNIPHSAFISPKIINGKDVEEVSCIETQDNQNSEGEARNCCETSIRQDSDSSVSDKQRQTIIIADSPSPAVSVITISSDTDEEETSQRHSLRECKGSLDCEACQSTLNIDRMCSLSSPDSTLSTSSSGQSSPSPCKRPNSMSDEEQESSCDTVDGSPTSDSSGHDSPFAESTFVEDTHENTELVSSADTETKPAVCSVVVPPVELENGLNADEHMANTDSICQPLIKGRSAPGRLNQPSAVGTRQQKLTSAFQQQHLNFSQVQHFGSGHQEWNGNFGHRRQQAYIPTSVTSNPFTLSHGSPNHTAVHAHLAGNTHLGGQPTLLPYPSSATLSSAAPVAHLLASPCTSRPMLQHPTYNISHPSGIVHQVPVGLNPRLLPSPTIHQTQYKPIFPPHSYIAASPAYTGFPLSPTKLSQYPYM

O=C(NCCCNc1nc(Nc2cccc(CN3CCOCC3)c2)ncc1C1CC1)C1CCC1
residual activity ([1]; compound 0.1 µM): 87%
residual activity ([1]; compound 1.0 µM): 74%
residual activity ([2]; compound 0.1 µM): 81%
residual activity ([2]; compound 1.0 µM): 94%
residual activity ([3]; compound 0.1 µM): 41%
residual activity ([3]; compound 1.0 µM): 14%
residual activity ([4]; compound 0.1 µM): 91%
residual activity ([4]; compound 1.0 µM): 108%
residual activity ([5]; compound 0.1 µM): 89%
residual activity ([5]; compound 1.0 µM): 98%
residual activity ([6]; compound 0.1 µM): 101%
residual activity ([6]; compound 1.0 µM): 117%
residual activity ([7]; compound 0.1 µM): 87%
residual activity ([7]; compound 1.0 µM): 94%
residual activity ([8]; compound 0.1 µM): 47%
residual activity ([8]; compound 1.0 µM): 11%
residual activity ([9]; compound 0.1 µM): 78%
residual activity ([9]; compound 1.0 µM): 71%
residual activity ([10]; compound 0.1 µM): 33%
residual activity ([10]; compound 1.0 µM): 29%
residual activity ([11]; compound 0.1 µM): 105%
residual activity ([11]; compound 1.0 µM): 112%
residual activity ([12]; compound 0.1 µM): 88%
residual activity ([12]; compound 1.0 µM): 75%
residual activity ([13]; compound 0.1 µM): 63%
residual activity ([13]; compound 1.0 µM): 21%
residual activity ([14]; compound 0.1 µM): 110%
residual activity ([14]; compound 1.0 µM): 129%
residual activity ([15]; compound 0.1 µM): 15%
residual activity ([15]; compound 1.0 µM): 1%
residual activity ([16]; compound 0.1 µM): 84%
residual activity ([16]; compound 1.0 µM): 47%
residual activity ([17]; compound 0.1 µM): 88%
residual activity ([17]; compound 1.0 µM): 70%
residual activity ([18]; compound 0.1 µM): 90%
residual activity ([18]; compound 1.0 µM): 95%
residual activity ([19]; compound 0.1 µM): 115%
residual activity ([19]; compound 1.0 µM): 137%
residual activity ([20]; compound 0.1 µM): 73%
residual activity ([20]; compound 1.0 µM): 34%
residual activity ([21]; compound 0.1 µM): 111%
residual activity ([21]; compound 1.0 µM): 110%
residual activity ([22]; compound 0.1 µM): 93%
residual activity ([22]; compound 1.0 µM): 57%
residual activity ([23]; compound 0.1 µM): 87%
residual activity ([23]; compound 1.0 µM): 29%
residual activity ([24]; compound 0.1 µM): 71%
residual activity ([24]; compound 1.0 µM): 56%
residual activity ([25]; compound 0.1 µM): 84%
residual activity ([25]; compound 1.0 µM): 72%
residual activity ([26]; compound 0.1 µM): 96%
residual activity ([26]; compound 1.0 µM): 94%
residual activity ([27]; compound 0.1 µM): 98%
residual activity ([27]; compound 1.0 µM): 110%
residual activity ([28]; compound 0.1 µM): 90%
residual activity ([28]; compound 1.0 µM): 95%
residual activity ([29]; compound 0.1 µM): 105%
residual activity ([29]; compound 1.0 µM): 88%
residual activity ([30]; compound 0.1 µM): 98%
residual activity ([30]; compound 1.0 µM): 68%
residual activity ([31]; compound 0.1 µM): 86%
residual activity ([31]; compound 1.0 µM): 47%
residual activity ([32]; compound 0.1 µM): 87%
residual activity ([32]; compound 1.0 µM): 84%
residual activity ([33]; compound 0.1 µM): 79%
residual activity ([33]; compound 1.0 µM): 93%
residual activity ([34]; compound 0.1 µM): 77%
residual activity ([34]; compound 1.0 µM): 64%
residual activity ([35]; compound 0.1 µM): 105%
residual activity ([35]; compound 1.0 µM): 72%
